Tests used:
Histamine H1 receptor = Histamine H1 receptor (Homo sapiens, UniProt P35367)
[1] = target: Beta-1 adrenergic receptor (Homo sapiens, UniProt P08588); format: functional
[2] = target: T1, Alpha-2B adrenergic receptor (Homo sapiens, UniProt P18089)
T1 sequence (P18089 whole entry): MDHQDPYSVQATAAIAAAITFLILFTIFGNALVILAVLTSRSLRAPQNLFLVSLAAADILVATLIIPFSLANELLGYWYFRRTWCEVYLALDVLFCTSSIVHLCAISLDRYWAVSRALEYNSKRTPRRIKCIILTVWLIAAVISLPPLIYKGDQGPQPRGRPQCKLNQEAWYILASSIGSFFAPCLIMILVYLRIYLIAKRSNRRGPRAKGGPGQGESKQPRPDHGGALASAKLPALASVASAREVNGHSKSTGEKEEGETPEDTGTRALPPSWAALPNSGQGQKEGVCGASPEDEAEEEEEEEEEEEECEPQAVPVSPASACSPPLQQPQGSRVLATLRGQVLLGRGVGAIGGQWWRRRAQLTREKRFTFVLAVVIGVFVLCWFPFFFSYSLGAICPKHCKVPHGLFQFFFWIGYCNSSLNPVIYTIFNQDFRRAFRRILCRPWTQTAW

[3] = target: T2, Prostaglandin G/H synthase 1 (Rattus norvegicus, UniProt Q63921); format: functional
T2 sequence (Q63921 whole entry): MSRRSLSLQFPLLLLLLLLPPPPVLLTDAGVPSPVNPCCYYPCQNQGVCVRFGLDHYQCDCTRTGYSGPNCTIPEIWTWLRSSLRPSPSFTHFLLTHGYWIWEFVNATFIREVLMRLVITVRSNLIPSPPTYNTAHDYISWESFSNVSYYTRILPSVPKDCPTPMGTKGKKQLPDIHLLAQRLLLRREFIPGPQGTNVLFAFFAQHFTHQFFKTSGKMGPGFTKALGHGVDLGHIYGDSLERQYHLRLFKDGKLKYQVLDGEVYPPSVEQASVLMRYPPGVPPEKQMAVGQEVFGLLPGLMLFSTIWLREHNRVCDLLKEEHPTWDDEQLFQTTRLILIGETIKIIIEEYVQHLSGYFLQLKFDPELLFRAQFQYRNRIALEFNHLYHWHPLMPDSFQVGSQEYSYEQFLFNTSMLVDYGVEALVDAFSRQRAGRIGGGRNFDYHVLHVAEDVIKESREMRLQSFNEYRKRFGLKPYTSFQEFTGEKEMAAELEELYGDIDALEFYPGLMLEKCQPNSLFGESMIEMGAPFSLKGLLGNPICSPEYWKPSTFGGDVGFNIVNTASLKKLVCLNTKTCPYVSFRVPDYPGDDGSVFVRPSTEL

[4] = target: T3, Amine oxidase [flavin-containing] A (Homo sapiens, UniProt P21397); format: functional
T3 sequence (P21397 whole entry): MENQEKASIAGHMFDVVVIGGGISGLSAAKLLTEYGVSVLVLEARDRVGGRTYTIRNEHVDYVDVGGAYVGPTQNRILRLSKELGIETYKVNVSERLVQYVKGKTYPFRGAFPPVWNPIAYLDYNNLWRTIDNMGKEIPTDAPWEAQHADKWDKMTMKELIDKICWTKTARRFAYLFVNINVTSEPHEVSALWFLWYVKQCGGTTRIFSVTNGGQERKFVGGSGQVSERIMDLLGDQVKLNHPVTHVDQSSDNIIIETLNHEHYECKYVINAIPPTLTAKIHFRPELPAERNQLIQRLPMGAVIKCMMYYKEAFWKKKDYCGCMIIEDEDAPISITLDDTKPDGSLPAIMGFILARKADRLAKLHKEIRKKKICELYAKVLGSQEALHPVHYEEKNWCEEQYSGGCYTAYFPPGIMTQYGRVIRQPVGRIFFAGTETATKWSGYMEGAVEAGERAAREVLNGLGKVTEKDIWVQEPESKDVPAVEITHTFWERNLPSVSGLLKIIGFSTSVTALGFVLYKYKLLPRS

D(3) dopamine receptor = D(3) dopamine receptor (Homo sapiens, UniProt P35462)
Sequence of D(3) dopamine receptor (P35462 whole entry): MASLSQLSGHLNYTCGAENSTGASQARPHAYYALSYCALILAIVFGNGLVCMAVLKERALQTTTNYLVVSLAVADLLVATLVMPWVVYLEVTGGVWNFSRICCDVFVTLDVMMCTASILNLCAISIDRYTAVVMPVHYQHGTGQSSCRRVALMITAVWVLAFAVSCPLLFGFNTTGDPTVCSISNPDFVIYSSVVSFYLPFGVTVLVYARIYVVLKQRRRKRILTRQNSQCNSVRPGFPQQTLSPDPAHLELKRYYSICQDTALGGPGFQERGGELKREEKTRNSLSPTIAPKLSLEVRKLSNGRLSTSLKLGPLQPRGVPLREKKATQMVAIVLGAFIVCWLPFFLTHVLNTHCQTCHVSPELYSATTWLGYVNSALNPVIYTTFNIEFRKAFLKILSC

[5] = target: Sodium-dependent noradrenaline transporter (Homo sapiens, UniProt P23975)
Sequence of Sodium-dependent noradrenaline transporter (P23975 whole entry): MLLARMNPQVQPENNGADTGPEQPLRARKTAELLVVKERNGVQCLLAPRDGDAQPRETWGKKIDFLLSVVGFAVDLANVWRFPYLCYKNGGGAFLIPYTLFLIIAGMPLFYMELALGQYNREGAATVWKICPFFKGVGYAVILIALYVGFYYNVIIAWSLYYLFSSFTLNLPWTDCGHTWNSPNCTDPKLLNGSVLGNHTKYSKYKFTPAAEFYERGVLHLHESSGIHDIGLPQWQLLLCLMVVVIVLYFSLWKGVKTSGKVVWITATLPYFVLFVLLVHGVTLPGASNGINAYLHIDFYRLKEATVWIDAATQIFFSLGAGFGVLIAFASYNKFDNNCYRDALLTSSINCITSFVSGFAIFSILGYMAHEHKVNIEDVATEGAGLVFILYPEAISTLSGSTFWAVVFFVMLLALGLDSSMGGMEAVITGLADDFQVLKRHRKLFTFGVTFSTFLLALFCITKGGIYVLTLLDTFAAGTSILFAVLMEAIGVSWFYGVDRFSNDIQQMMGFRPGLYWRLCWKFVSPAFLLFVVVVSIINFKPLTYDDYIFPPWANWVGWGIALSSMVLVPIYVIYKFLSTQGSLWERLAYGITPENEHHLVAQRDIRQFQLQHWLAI
Note: assay procedure not described here.

Sequence of Histamine H1 receptor (P35367 whole entry): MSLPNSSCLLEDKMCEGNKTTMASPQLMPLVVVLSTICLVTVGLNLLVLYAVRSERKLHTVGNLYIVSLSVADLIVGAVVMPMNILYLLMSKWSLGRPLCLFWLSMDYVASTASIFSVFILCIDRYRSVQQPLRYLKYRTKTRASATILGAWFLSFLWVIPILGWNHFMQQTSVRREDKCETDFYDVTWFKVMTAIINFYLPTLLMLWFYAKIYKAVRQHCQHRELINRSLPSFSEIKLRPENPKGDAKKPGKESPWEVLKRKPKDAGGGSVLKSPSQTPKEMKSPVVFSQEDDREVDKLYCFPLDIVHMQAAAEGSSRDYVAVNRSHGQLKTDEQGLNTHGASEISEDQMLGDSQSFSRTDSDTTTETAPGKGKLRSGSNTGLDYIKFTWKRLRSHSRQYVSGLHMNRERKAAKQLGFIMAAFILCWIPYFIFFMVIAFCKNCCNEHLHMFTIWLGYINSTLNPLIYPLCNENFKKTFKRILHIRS
Sequence of Beta-1 adrenergic receptor (P08588 whole entry): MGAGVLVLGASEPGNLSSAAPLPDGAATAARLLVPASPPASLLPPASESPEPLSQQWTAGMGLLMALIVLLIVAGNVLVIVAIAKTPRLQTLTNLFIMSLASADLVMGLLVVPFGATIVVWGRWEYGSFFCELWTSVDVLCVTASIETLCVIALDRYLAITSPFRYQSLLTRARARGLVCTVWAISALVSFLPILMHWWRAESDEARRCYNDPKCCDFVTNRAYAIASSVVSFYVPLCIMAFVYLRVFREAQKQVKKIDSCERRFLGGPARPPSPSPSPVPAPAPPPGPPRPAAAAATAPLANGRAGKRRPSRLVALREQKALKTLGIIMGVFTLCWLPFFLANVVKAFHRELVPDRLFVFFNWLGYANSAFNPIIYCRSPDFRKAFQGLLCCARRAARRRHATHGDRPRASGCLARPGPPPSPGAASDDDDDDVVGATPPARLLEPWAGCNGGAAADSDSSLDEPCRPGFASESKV

| SMILES | AC50 (Histamine H1 receptor) [µM] | AC50 [1] [µM] | AC50 [2] [µM] | AC50 [3] [µM] | AC50 [4] [µM] | AC50 (D(3) dopamine receptor) [µM] | AC50 [5] [µM] |
| --- | --- | --- | --- | --- | --- | --- | --- |
| CCOC(=O)O[C@]1(C(=O)OCCl)CC[C@H]2[C@@H]3CCC4=CC(=O)C=C[C@]4(C)[C@H]3[C@@H](O)C[C@@]21C [LOTEPREDNOL ETABONATE] | > 30 | > 30 | > 30 | > 30 | > 30 | > 30 | > 30 |
| CCN(CC)CCN1C(=O)CN=C(c2ccccc2F)c2cc(Cl)ccc21 [FLURAZEPAM] | > 10 | > 10 | > 10 | > 30 | > 10 | 8.4 | > 30 |
| Cn1c(=O)cc(N2CCC[C@@H](N)C2)n(Cc2ccccc2C#N)c1=O [ALOGLIPTIN] | > 10 | > 10 | > 10 | > 30 | – | > 10 | > 10 |
| CC(=O)[C@]1(O)Cc2c(O)c3c(c(O)c2[C@@H](O[C@H]2C[C@H](N)[C@H](O)[C@H](C)O2)C1)C(=O)c1ccccc1C3=O [IDARUBICIN] | – | > 30 | – | > 30 | > 30 | 17 | 8.7 |
| Nc1cc(-c2ccncc2)c[nH]c1=O [INAMRINONE] | – | > 10 | – | > 30 | > 10 | > 30 | > 30 |
| CC(=O)OCC(=O)[C@@]1(O)[C@H](C)C[C@H]2[C@@H]3CCC4=CC(=O)C=C[C@]4(C)[C@@]3(F)[C@@H](O)C[C@@]21C [DEXAMETHASONE ACETATE] | > 10 | > 10 | > 10 | > 30 | > 10 | > 30 | > 30 |
| Cn1cnc2c(F)c(Nc3ccc(Br)cc3Cl)c(C(=O)NOCCO)cc21 [SELUMETINIB] | > 10 | – | – | > 30 | > 10 | – | > 30 |
| Cc1ncc2n1-c1ccc(Cl)cc1C(c1ccccc1F)=NC2 [MIDAZOLAM] | > 10 | > 10 | > 10 | > 30 | > 10 | 10 | > 30 |
| COc1ccc2nc3cc(Cl)ccc3c(Nc3cc(CN4CCCC4)c(O)c(CN4CCCC4)c3)c2n1 [PYRONARIDINE] | 21 | > 30 | > 30 | > 30 | > 30 | 21 | 8.1 |
| CC(=O)[C@@]1(O)CC[C@H]2[C@@H]3C=C(Cl)C4=CC(=O)[C@@H]5C[C@@H]5[C@]4(C)[C@H]3CC[C@@]21C [CYPROTERONE] | > 10 | > 10 | > 10 | > 10 | > 10 | > 30 | > 10 |
| CCCCCC(=O)O[C@]1(C(C)=O)CC[C@H]2[C@@H]3CCC4=CC(=O)CC[C@]4(C)[C@H]3CC[C@@]21C [HYDROXYPROGESTERONE CAPROATE] | > 30 | > 30 | > 30 | > 30 | > 30 | > 30 | > 30 |

From ChEMBL document CHEMBL5291721, “A preclinical secondary pharmacology resource illuminates target-adverse drug reaction associations of marketed drugs” (Nat Commun, 2023)
